Results reported in paper PMC11237553, “De novo synthetic antimicrobial peptide design with a recurrent neural network” (Protein Science : A Publication of the Protein Society, 2024).

Tested on: Escherichia coli ATCC 25922
Test: Broth microdilution antimicrobial susceptibility testing (MIC/MBC)
Format: cell-based
Settings: one maximum and one minimum data point dropped; for MIC, E. coli ATCC 25922: broth microdilution (CLSI, adapted for cationic AMPs), Mueller‐Hinton Broth, 5 ± 3 × 10^5 CFU/mL, 20–24 h at 37°C, test range 128 down to 0.25 μg/mL, lowest effective concentration range in three independent experiments in duplicate; for MBC, E. coli ATCC 25922: concentration killing 99.9% of the inoculum, plated from MIC wells, 24 h at 37°C, range in three independent experiments in duplicate
Experimental: Bacteria from frozen stocks were streaked onto non‐selective Columbia blood agar with 5% sheep blood (Oxoid) and incubated for 18–24 h at 37°C. The following day, 2–4 colonies were streaked onto a new agar plate and incubated for 18–24 h at 37°C to ensure uniform colony health prior to the assay. A standardized bacterial inoculum was prepared by suspending isolated colonies in Mueller‐Hinton Broth (MHB; Sigma‐Aldrich, St. Louis, MO, USA). The suspension was adjusted to an optical density of 0.08–0.1 at 600 nm, equivalent to a 0.5 McFarland standard of approximately 1–2 × 10^8 CFU/mL (CFU: colony forming units). The inoculum was then diluted 1:250 to achieve a final concentration of 5 ± 3 × 10^5 CFU/mL. The target bacterial density was confirmed by examining the total viability counts from the final inoculum.
Candidate AMPs were purchased from and synthesized by GenScript (Piscataway, NJ, USA). These were received in lyophilized format and stored at −20°C, and were suspended in sterile ultrapure water prior to testing.

RLPSIIPGIAGKLGGLLGGLLKGL [DeNo1027] was tested. Which “MIC, E. coli ATCC 25922” value did it give?
The value was 32 µg/mL.

What about the “MBC, E. coli ATCC 25922” value of the same sequence?
The value was 32 to 64 µg/mL.

For MLPSIAGAAAKGLPKLFCKITKKC [DeNo1038], which “MIC, E. coli ATCC 25922” value is on record?
The value was 64 µg/mL.

What about the “MBC, E. coli ATCC 25922” value of the same sequence?
The value was 64 to 128 µg/mL.

With KIFGKILKKLLKKLLKKLLKKL [DeNo1013] as the sequence, how does the “MIC, E. coli ATCC 25922” value read?
The value was 16 µg/mL.

What about the “MBC, E. coli ATCC 25922” value of the same sequence?
The value was 16 to 32 µg/mL.

Which “MIC, E. coli ATCC 25922” value does the source give for KLPSIIKAAAKALPKLF [DeNo1034] here?
Its value is 16 to 32 µg/mL.

And the “MBC, E. coli ATCC 25922” value?
Its value is 16 to 64 µg/mL.

With “TLPDVAKNVAKNVAKTVLDTLKCKITGKC [DeNo1020]” as the sequence, how does the “MIC, E. coli ATCC 25922” value read?
The value was 64 to 128 µg/mL.

What about the “MBC, E. coli ATCC 25922” value of the same sequence?
The value was 64 to 128 µg/mL.

Which results are given for FLPKIFKKIAKKL [DeNo1045]?
MIC, E. coli ATCC 25922: 64 µg/mL; MBC, E. coli ATCC 25922: 64 to 128 µg/mL

With FLPKIAGKAAKKLPKIFCKITKKC [DeNo1019] as the sequence, how does the “MIC, E. coli ATCC 25922” value read?
The value was 16 µg/mL.

And the “MBC, E. coli ATCC 25922” value?
Its value is 16 µg/mL.
